Data: patent US9416353B2, “Covalent tethering of functional groups to proteins and substrates therefor” (Promega Corporation, priority 2004, dated 2016)

Key:
[1] = biological target: R.Luc-connector-DhaA.H272F (UniProt P0A3G2+P27652, H272F/T2A); assay type: binding; conditions: pretreatment with non-biotinylated substrate
[2] = biological target: hR.Luc-connector-DhaA.H272F-Flag (UniProt P0A3G2+P27652, H272F/T2A); assay type: cell-based; conditions: Western blot, anti-R.Luc antibody

| Compound | decrease of the efficiency of capturing [1] | hR.Luc-connector-DhaA.H272F-Flag fusion protein captured [2] |
| --- | --- | --- |
| N-{2-[2-(6-Chlorohexyloxy)-ethoxy]-ethyl}-tetramethylrhodamine-5-(and -6)-amide | about 80% | – |
| O=C(CCCC[C@@H]1SC[C@@H]2NC(=O)N[C@@H]21)NCCOCCOCCCCCCCl [biotin-C10H21NO2—Cl, N-{2-[2-(6-Chlorohexyloxy)-ethoxy]ethyl}-biotin-amide] | – | more than 50% |
